Test results published in patent publication US6321750A, “Condom lubricants with zinc salts as anti-viral additives” (priority 1999, dated 2001).
Entries after “also recorded” stand apart in the source; their conditions may differ. Read-outs that look alike come from different tables or passages of the source.

What was measured:
forearm = assay: Irritation test on forearm / skin; assay type: in vivo, human
Experimental: Zinc acetate was purchased from Pfaltz and Bauer (Waterbury, Connecticut). About 0.5 grams were mixed with several drops of distilled water at room temperature. […] The aqueous mixture was rubbed into an area about 3 cm in diameter on the forearm of […] and caused no irritation. Subsequently, about 0.5 grams of the salt were dissolved in a few drops of distilled water, then 10 ml K-Y Lubricating Jelly (sold by Johnson and Johnson, New Brunswick, N.J.) was added to form a gel mixture containing about 5% zinc acetate (w/v). This commercially available mixture contains purified water, hydroxyethyl-cellulose as a thickening agent, glycerin as a lubricant, glucono-delta-lactate to prevent crystallization, chlorhexidine gluconate as a preservative, and sodium hydroxide to reduce the acidity.

vagina = assay: Irritation test in shallow region of the vagina (volunteer); assay type: in vivo, human
Source text: In all examples, the test subjects were a monogamous married couple, free of genital herpes and all other known sexually transmitted viruses.

[1] = Acidity tests: pH of 5% w/v zinc salt solutions; conditions: 5% w/v in distilled deionized water
[2] = cited from earlier work
[3] = water; cited from earlier work

## Zinc acetate
forearm; about 0.5 g in several drops of distilled water
  irritation, forearm: no irritation
forearm; dissolved in water alone
  burning and irritation to the skin: substantial amount of burning and irritation to the skin
20 mg in 1 ml RPMI culture medium containing protein
  solubility in cell culture medium / water: generated a precipitate in the culture medium
General statement
  solubility in water: highly soluble in water
Salt in a few drops of distilled water, room temperature
  solubility in water: dissolved completely
vagina; dissolved in (distilled) water alone
  irritation, vagina: unpleasant tingling or mild burning sensation; also recorded: vaginal irritation
vagina; gel in K-Y Lubricating Jelly, about 5% w/v, passive test
  irritation, vagina / female genitals: no tingling, burning, or other unpleasant sensation
[1]
  pH of solution (rounded): about 6.2
[1]; 0.05 subtracted from meter reading, approximately accurate
  pH of solution: 6.27
[2]; in aqueous solution
  ionization rate: ≤ 30%
[2]; in water, values below 2 refer to release of a single carboxy anion
  Reported pK values: 1.03
[3]
  Molar solubility: 1.64
  Solubility: 300
